Assay results from ChEMBL document CHEMBL4480422, “Alkyl derivatives of 1,3,5-triazine as histamine H4 receptor ligands” (Bioorg Med Chem, 2019).
Calls of active or inactive are those of the source.

What was measured:
Histamine H4 receptor [1] = target: T1, Histamine H4 receptor (Homo sapiens, UniProt Q9H3N8); experiment: Displacement of [3H]-histamine from recombinant human H4 receptor expressed in Sf9 cell membranes co-expressing Galphai2/Gbeta1gamma2
Rattus norvegicus [2] = experiment: Anti-inflammatory activity in Wistar (Krf:(WI) WU) rat model of carrageenan-induced paw edema assessed as hind paw volume at 25 mg/kg, ip administered as single dose prior to carrageenan challenge and measured after 1 hr by plethysmometer (reference value: 49%); assay type: functional
Rattus norvegicus [3] = experiment: Anti-inflammatory activity in Wistar (Krf:(WI) WU) rat model of carrageenan-induced paw edema assessed as hind paw volume at 25 mg/kg, ip administered as single dose prior to carrageenan challenge and measured after 2 hrs by plethysmometer (reference value: 103%); assay type: functional
Rattus norvegicus [4] = experiment: Anti-inflammatory activity in Wistar (Krf:(WI) WU) rat model of carrageenan-induced thermal hyperalgesia assessed as paw withdrawal latency time at 25 mg/kg, ip administered as single dose prior to carrageenan challenge and measured after 2 hrs by plantar test (reference value: 4.03 +/- 0.7 s); assay type: functional
Rattus norvegicus [5] = experiment: Anti-inflammatory activity in Wistar (Krf:(WI) WU) rat model of carrageenan-induced thermal hyperalgesia assessed as paw withdrawal latency time at 25 mg/kg, ip administered as single dose prior to carrageenan challenge and measured after 1 hr by plantar test (reference value: 4.79 +/- 0.99 s); assay type: functional
Mus musculus [6] = experiment: Antinociceptive activity in formalin-induced nociception pain Albino Swiss CD-1 mouse model assessed as reduction in time spent licking or biting formalin injected right hind paw in inflammatory phase at 25 mg/kg, ip pretreated followed by formalin injection and measured after 15 to 30 mins relative to control; assay type: functional; design: scale not given: the % may be the effect or the level left
Rattus norvegicus [7] = experiment: Anti-inflammatory activity in Wistar (Krf:(WI) WU) rat model of carrageenan-induced mechanical hyperalgesia assessed as increase in paw withdrawal threshold at 25 mg/kg, ip administered as single dose prior to carrageenan challenge and measured after 3 hrs; assay type: functional, organism-based
Mus musculus [8] = experiment: Antinociceptive activity in formalin-induced nociception pain Albino Swiss CD-1 mouse model assessed as reduction in time spent licking or biting formalin injected right hind paw in early phase at 25 mg/kg, ip pretreated followed by formalin injection and measured up to 5 mins; assay type: functional, organism-based
Rattus norvegicus [9] = experiment: Anti-inflammatory activity in Wistar (Krf:(WI) WU) rat model of carrageenan-induced paw edema assessed as hind paw volume at 25 mg/kg, ip administered as single dose prior to carrageenan challenge and measured after 3 hrs by plethysmometer (reference value: 130%); assay type: functional
Rattus norvegicus [10] = experiment: Anti-inflammatory activity in Wistar (Krf:(WI) WU) rat model of carrageenan-induced paw edema assessed as hind paw volume at 12.5 mg/kg, ip administered as single dose prior to carrageenan challenge and measured after 2 hrs by plethysmometer (reference value: 103%); assay type: functional
Histamine H4 receptor [11] = target: T1, Histamine H4 receptor; experiment: Agonist activity at recombinant human H4 receptor expressed in CHOK1 cells co-expressing Galpha16/aequorin assessed as increase in intracellular calcium flux incubated for 1 hr measured for 30 secs in presence of coelenterazine by luminescence assay; assay type: functional, cell-based
Mus musculus [12] = experiment: Antinociceptive activity in ip dosed formalin-induced nociception pain Albino Swiss CD-1 mouse model assessed as reduction in time spent licking or biting formalin injected right hind paw in inflammatory phase pretreated followed by formalin injection and measured after 15 to 30 mins; assay type: functional; settings: Swiss CD-1, ip
Rattus norvegicus [13] = experiment: Anti-inflammatory activity in Wistar (Krf:(WI) WU) rat model of carrageenan-induced paw edema assessed as hind paw volume at 50 mg/kg, ip administered as single dose prior to carrageenan challenge and measured after 1 hr by plethysmometer (reference value: 49%); assay type: functional
Rattus norvegicus [14] = experiment: Anti-inflammatory activity in Wistar (Krf:(WI) WU) rat model of carrageenan-induced thermal hyperalgesia assessed as paw withdrawal latency time at 50 mg/kg, ip administered as single dose prior to carrageenan challenge and measured after 1 hr by plantar test (reference value: 4.79 +/- 0.99 s); assay type: functional
Mus musculus [15] = experiment: Effect on spontaneous locomotor activity in Albino Swiss CD-1 mouse assessed as change in number of light beam crossings at 25 to 50 mg/kg, ip treated prior to test and measured for next 30 mins; assay type: ADME, organism-based; settings: in vivo, 0.5 h
Mus musculus [16] = experiment: Antinociceptive activity in formalin-induced nociception pain Albino Swiss CD-1 mouse model assessed as reduction in time spent licking or biting formalin injected right hind paw in early phase at 75 mg/kg, ip pretreated followed by formalin injection and measured up to 5 mins; assay type: functional, organism-based
Rattus norvegicus [17] = experiment: Anti-inflammatory activity in Wistar (Krf:(WI) WU) rat model of carrageenan-induced paw edema assessed as hind paw volume at 12.5 mg/kg, ip administered as single dose prior to carrageenan challenge and measured after 1 hr by plethysmometer (reference value: 49%); assay type: functional
Rattus norvegicus [18] = experiment: Anti-inflammatory activity in Wistar (Krf:(WI) WU) rat model of carrageenan-induced thermal hyperalgesia assessed as paw withdrawal latency time at 25 mg/kg, ip administered as single dose prior to carrageenan challenge and measured after 3 hrs by plantar test (reference value: 3.03 +/- 0.4 s); assay type: functional
Histamine H1 receptor = Histamine H1 receptor (Cavia porcellus, UniProt P31389); experiment: Antagonist activity at histamine H1 receptor in guinea-pig ileum assessed as inhibition of histamine-induced contractions after 15 mins; assay type: tissue-based; settings: read-out: pA2 (converted)
Rattus norvegicus [19] = experiment: Anti-inflammatory activity in Wistar (Krf:(WI) WU) rat model of carrageenan-induced paw edema assessed as hind paw volume at 12.5 mg/kg, ip administered as single dose prior to carrageenan challenge and measured after 3 hrs by plethysmometer (reference value: 130%); assay type: functional
Mus musculus [20] = experiment: Effect on spontaneous locomotor activity in Albino Swiss CD-1 mouse assessed as decrease in number of light beam crossings at 75 mg/kg, ip treated prior to test and measured for next 30 mins relative to control; assay type: ADME, organism-based; design: scale not given: the % may be the effect or the level left; settings: in vivo, 0.5 h
Rattus norvegicus [21] = experiment: Anti-inflammatory activity in Wistar (Krf:(WI) WU) rat model of carrageenan-induced paw edema assessed as hind paw volume at 50 mg/kg, ip administered as single dose prior to carrageenan challenge and measured after 3 hrs by plethysmometer (reference value: 130%); assay type: functional
Rattus norvegicus [22] = experiment: Anti-inflammatory activity in Wistar (Krf:(WI) WU) rat model of carrageenan-induced mechanical hyperalgesia assessed as increase in paw withdrawal threshold at 12.5 to 50 mg/kg, ip administered as single dose prior to carrageenan challenge and measured after 3 hrs; assay type: functional, organism-based
[23] = target: T2, Muscarinic acetylcholine receptor M3 (Cavia porcellus, UniProt Q8VH26); experiment: Agonist activity at muscarinic M3 receptor in guinea-pig ileum assessed as induction of contractions after 15 mins; assay type: tissue-based; settings: 0.25 h
[24] = Neurotoxicity in Albino Swiss CD-1 mouse assessed as motor impairment at 25 to 75 mg/kg, ip treated 30 mins prior to test by rotarod test; assay type: toxicity, organism-based; settings: in vivo, 0.5 h
Histamine H4 receptor [25] = target: T1, Histamine H4 receptor; experiment: Agonist activity at recombinant human H4 receptor expressed in Sf9 cell membranes co-expressing Galphai2/Gbeta1gamma2 measured after 1 hr in presence of [35S]GTPgammaS by liquid scintillation counting method; assay type: functional
[26] = target: Histamine H1 receptor (Cavia porcellus) (UniProt P31389); experiment: Agonist activity at histamine H1 receptor in guinea-pig ileum assessed as induction of contractions after 15 mins; assay type: tissue-based
Histamine H4 receptor [27] = target: T1, Histamine H4 receptor; experiment: Antagonist activity at recombinant human H4 receptor expressed in CHOK1 cells co-expressing Galpha16/aequorin assessed as inhibition of histamine-induced intracellular calcium flux preincubated for 30 mins followed by histamine addition and measured for 30 secs in presence of coelenterazine by luminescence assay; assay type: functional, cell-based
Mus musculus [28] = experiment: Antinociceptive activity in formalin-induced nociception pain Albino Swiss CD-1 mouse model assessed as reduction in time spent licking or biting formalin injected right hind paw in inflammatory phase at 50 mg/kg, ip pretreated followed by formalin injection and measured after 15 to 30 mins relative to control; assay type: functional; design: scale not given: the % may be the effect or the level left
Rattus norvegicus [29] = experiment: Anti-inflammatory activity in Wistar (Krf:(WI) WU) rat model of carrageenan-induced thermal hyperalgesia assessed as paw withdrawal latency time at 50 mg/kg, ip administered as single dose prior to carrageenan challenge and measured after 2 hrs by plantar test (reference value: 4.03 +/- 0.7 s); assay type: functional
[30] = target: T2, Muscarinic acetylcholine receptor M3; experiment: Antagonist activity at muscarinic M3 receptor in guinea-pig ileum assessed as inhibition of carbachol-induced contractions after 15 mins; assay type: tissue-based; settings: read-out: pA2 (converted)
Rattus norvegicus [31] = experiment: Anti-inflammatory activity in Wistar (Krf:(WI) WU) rat model of carrageenan-induced thermal hyperalgesia assessed as paw withdrawal latency time at 50 mg/kg, ip administered as single dose prior to carrageenan challenge and measured after 3 hrs by plantar test (reference value: 3.03 +/- 0.4 s); assay type: functional
Histamine H4 receptor [32] = target: T1, Histamine H4 receptor; settings: Sf9
Rattus norvegicus [33] = experiment: Anti-inflammatory activity in Wistar (Krf:(WI) WU) rat model of carrageenan-induced paw edema assessed as reduction in hind paw volume administered as single ip dose prior to carrageenan challenge and measured after 1 to 3 hrs by plethysmometer; assay type: functional, organism-based
Rattus norvegicus [34] = experiment: Anti-inflammatory activity in Wistar (Krf:(WI) WU) rat model of carrageenan-induced paw edema assessed as hind paw volume at 50 mg/kg, ip administered as single dose prior to carrageenan challenge and measured after 2 hrs by plethysmometer (reference value: 103%); assay type: functional

T1 sequence (Q9H3N8 whole entry): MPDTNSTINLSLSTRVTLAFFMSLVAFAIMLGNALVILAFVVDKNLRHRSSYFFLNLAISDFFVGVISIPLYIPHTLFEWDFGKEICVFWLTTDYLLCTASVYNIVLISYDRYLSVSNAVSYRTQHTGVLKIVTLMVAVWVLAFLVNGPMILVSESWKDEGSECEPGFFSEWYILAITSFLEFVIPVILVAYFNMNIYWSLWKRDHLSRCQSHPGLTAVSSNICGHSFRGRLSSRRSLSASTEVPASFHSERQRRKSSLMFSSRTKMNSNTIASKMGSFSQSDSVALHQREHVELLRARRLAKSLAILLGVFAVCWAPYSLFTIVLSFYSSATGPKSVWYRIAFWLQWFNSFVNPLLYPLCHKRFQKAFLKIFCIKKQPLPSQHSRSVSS
T2 sequence (Q8VH26 whole entry): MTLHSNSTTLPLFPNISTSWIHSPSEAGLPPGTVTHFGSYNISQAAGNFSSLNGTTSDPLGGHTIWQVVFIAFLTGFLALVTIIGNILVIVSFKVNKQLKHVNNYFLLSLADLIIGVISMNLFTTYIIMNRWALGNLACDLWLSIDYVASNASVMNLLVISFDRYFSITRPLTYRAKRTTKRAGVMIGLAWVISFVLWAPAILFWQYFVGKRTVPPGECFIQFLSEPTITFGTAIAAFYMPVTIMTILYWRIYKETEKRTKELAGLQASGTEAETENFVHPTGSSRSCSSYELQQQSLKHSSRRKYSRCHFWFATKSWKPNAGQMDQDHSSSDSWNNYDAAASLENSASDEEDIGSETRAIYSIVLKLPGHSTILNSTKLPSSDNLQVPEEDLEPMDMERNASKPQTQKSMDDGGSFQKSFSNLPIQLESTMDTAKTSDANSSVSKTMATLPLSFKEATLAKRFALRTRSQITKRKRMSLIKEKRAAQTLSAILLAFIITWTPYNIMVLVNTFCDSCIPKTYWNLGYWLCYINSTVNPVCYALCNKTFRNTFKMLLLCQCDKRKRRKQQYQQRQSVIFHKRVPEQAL
Histamine H1 receptor (Cavia porcellus), sequence (P31389 whole entry): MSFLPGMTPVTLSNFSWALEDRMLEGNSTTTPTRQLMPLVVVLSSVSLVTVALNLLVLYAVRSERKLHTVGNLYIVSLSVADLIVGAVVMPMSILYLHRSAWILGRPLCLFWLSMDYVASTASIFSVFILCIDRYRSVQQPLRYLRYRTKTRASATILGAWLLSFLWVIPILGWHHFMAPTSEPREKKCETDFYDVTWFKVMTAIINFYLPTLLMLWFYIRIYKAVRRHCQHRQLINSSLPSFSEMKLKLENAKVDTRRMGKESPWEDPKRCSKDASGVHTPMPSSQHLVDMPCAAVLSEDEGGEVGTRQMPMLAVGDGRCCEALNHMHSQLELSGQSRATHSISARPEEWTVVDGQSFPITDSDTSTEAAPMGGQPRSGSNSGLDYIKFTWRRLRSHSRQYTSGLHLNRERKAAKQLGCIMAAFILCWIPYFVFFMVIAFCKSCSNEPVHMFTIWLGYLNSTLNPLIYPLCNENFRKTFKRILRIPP
Histamine H1 receptor, sequence (P31389 whole entry): as above

## CN1CCN(c2nc(N)nc(C(C)(C)C)n2)CC1
Histamine H4 receptor [1]
  Ki: 1080 nM

## CCC(CC)c1nc(N)nc(N2CCN(C)CC2)n1
Histamine H4 receptor [1]
  Ki: 1330 nM

## CN1CCN(c2nc(N)nc(CC(C)(C)C)n2)CC1
Histamine H4 receptor [1]
  Ki: 247 nM

## CC(C)=Cc1nc(N)nc(N2CCN(C)CC2)n1
Histamine H4 receptor [1]
  Ki: 470 nM

## CCc1nc(N)nc(N2CCN(C)CC2)n1
Histamine H4 receptor [1]
  Ki: 812 nM

## CN1CCN(C(=O)c2cc3cc(Cl)ccc3[nH]2)CC1 [JNJ-7777120]
Rattus norvegicus [2]
  Activity: 22.11%
Rattus norvegicus [3]
  Activity: 47.4%
Rattus norvegicus [4]
  Time: 8.39 s
Rattus norvegicus [5]
  Time: 9.14 s
Mus musculus [6]
  Activity: 60.68%
Rattus norvegicus [7]
  Activity: Active
Mus musculus [8]
  Activity: inactive
Rattus norvegicus [9]
  Activity: 63.66%

## CN1CCN(c2nc(N)nc(CC3CCCCC3)n2)CC1
Rattus norvegicus [2]
  Activity: 19.56%
Rattus norvegicus [10]
  Activity: 53.77%
Histamine H4 receptor [11]
  Activity: inactive
Mus musculus [12]
  ED50: 54.8 mg/kg
Rattus norvegicus [13]
  Activity: 8.69%
Rattus norvegicus [14]
  Time: 9.43 s
Rattus norvegicus [3]
  Activity: 41.3%
Rattus norvegicus [4]
  Time: 9.78 s
Rattus norvegicus [5]
  Time: <=10.49 s
Mus musculus [15]
  Activity: Non-Toxic
Mus musculus [16]
  Activity: Active
Rattus norvegicus [17]
  Activity: 25.47%
Rattus norvegicus [18]
  Time: 7.06 s
Histamine H1 receptor
  Kb: 1230 nM
Rattus norvegicus [19]
  Activity: 83.96%
Mus musculus [20]
  Activity: 23.84%
Rattus norvegicus [21]
  Activity: 57.37%
Rattus norvegicus [22]
  Activity: Active
[23]
  Activity: Not Active
[24]
  Activity: Non-Toxic
Histamine H4 receptor [25]
  Activity: inactive
[26]
  Activity: inactive
Histamine H4 receptor [27]
  IC50: 32 nM
Histamine H4 receptor [1]
  Ki: 160 nM
Mus musculus [28]
  Activity: 59.83%
Rattus norvegicus [29]
  Time: 10.05 s
[30]
  Kb: 2040 nM
Rattus norvegicus [31]
  Time: 9.03 s
Histamine H4 receptor [32]
  pKb: 6.67 to 6.7
Rattus norvegicus [33]
  Activity: Dose-dependent effect
Rattus norvegicus [9]
  Activity: 84.3%
Rattus norvegicus [34]
  Activity: 21.73%

## Cc1nc(N)nc(N2CCN(C)CC2)n1
Histamine H4 receptor [1]
  Ki: 2660 nM

## CC(C)Cc1nc(N)nc(N2CCN(C)CC2)n1
Histamine H4 receptor [1]
  Ki: 529 nM

## CN1CCN(c2nc(N)nc(CCC3CCCCC3)n2)CC1
Histamine H4 receptor [1]
  Ki: 2850 nM

## CCC(C)c1nc(N)nc(N2CCN(C)CC2)n1 (stereo not given)
Histamine H4 receptor [1]
  Ki: 725 nM

## CCCc1nc(N)nc(N2CCN(C)CC2)n1
Histamine H4 receptor [11]
  Activity: inactive
Histamine H4 receptor [27]
  IC50: 265 nM
Histamine H4 receptor [1]
  Ki: 185 nM

## CC(C)c1nc(N)nc(N2CCN(C)CC2)n1
Histamine H4 receptor [1]
  Ki: 277 nM

## COCc1nc(N)nc(N2CCN(C)CC2)n1
Histamine H4 receptor [1]
  Ki: > 10000 nM

## CN1CCN(c2nc(N)nc(CCCC3CCCCC3)n2)CC1
Histamine H4 receptor [1]
  Ki: > 10000 nM
